Where two headings read alike, the source gives them in different places.
What was measured:
Assay type in all cases: in vivo
Viola tricolor (VIOTR) [1] = assay: Post-emergence herbicidal action against VIOTR; conditions: 320 g/ha
Summary of the method: (§1)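 Greenhouse plants sprayed at the one-leaf stage, 2–3 weeks after sowing, with WP or EC formulations plus 0.5% additive at 600 l/ha water. Activity rated visually after about 3 weeks versus untreated controls (100% = dead, 0% = like control), at 320 g/ha or lower.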

Zea mays (ZEAMX) [2] = conditions: for Post-emergence action against ZEAMX in %: crop plant compatibility, effect vs untreated controls
Summary of the method: (§2)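 Greenhouse crops in sandy loam sprayed post-emergence at the one-leaf stage, 2–3 weeks after sowing, with WP or EC formulations in water plus 0.5% additive at 600 l/ha. Damage rated visually about 3 weeks later versus untreated controls (0% = like control, 100% = dead); suffixes a–c denote different doses.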

Oryza sativa (ORYSA) [3] = conditions: crop plant compatibility
Summary of the method: as §2

[4] = system: Amaranthus retroflexus (AMARE); assay: Post-emergence herbicidal action against AMARE
Summary of the method: as §1

Setaria viridis (SETVI) = assay: Pre-emergence herbicidal action against SETVI; conditions: dosage 320 g/ha
Summary of the method: (§3)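 Herbicide applied to soil before seedling emergence, at 600 l/ha spray volume with 0.5% additive and rates up to 320 g/ha. Evaluation: visual percentage effect, about 3 weeks later, greenhouse-grown pots compared with untreated ones.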

[5] = system: Triticum aestivum (TRZAS); conditions: pre-emergence, 80 g/ha, crop plant compatibility, in comparison to untreated controls
Summary of the method: (§4)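 Scoring: visual, % of untreated control, about 3 weeks after a pre-emergence application to the soil surface. Application used WP or EC formulations diluted in water with 0.5% additive at 600 l/ha; dosage levels are marked by suffixes a, b and c.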

Zea mays (ZEAMX) [6] = conditions: pre-emergence, crop plant compatibility, in comparison to untreated controls
Summary of the method: as §4

Glycine max (GLXMA) = conditions: pre-emergence, 80 g/ha, crop plant compatibility, in comparison to untreated controls
Summary of the method: as §4

Oryza sativa (ORYSA) [7] = conditions: pre-emergence, crop plant compatibility, in comparison to untreated controls
Summary of the method: as §4

[8] = system: Matricaria inodora (MATIN); assay: Post-emergence herbicidal action against MATIN; conditions: dosage 320 g/ha
Summary of the method: as §1

[9] = system: Digitaria sanguinalis (DIGSA); assay: Pre-emergence herbicidal action against DIGSA; conditions: dosage 320 g/ha
Summary of the method: as §3

[10] = system: Matricaria inodora (MATIN); assay: Pre-emergence herbicidal action against MATIN; conditions: dosage 320 g/ha
Summary of the method: as §3

[11] = system: Amaranthus retroflexus (AMARE); assay: Pre-emergence herbicidal action against AMARE; conditions: 320 g/ha, visual scoring after about 3 weeks vs untreated controls
Summary of the method: as §3

[12] = system: Echinochloa crus-galli (ECHCG); assay: Pre-emergence herbicidal action against ECHCG; conditions: dosage 320 g/ha
Summary of the method: as §3

[13] = system: Verconica persica (VERPE); assay: Post-emergence herbicidal action against VERPE; conditions: 320 g/ha, VERPE
Summary of the method: as §1

[14] = system: Echinochloa crus-galli (ECHCG); assay: Post-emergence herbicidal action against ECHCG; conditions: dosage 320 g/ha
Summary of the method: as §1

[15] = system: Polygonum convolvulus (POLCO); assay: Pre-emergence herbicidal action against POLCO
Summary of the method: as §3

[16] = system: Alopecurus myosuroides (ALOMY); assay: Post-emergence herbicidal action against ALOMY; conditions: 320 g/ha, visual rating about 3 weeks after treatment vs untreated controls (100% = plants have died, 0% = like control plants)
Summary of the method: as §1

[17] = system: Alopecurus myosuroides (ALOMY); assay: Pre-emergence herbicidal action against ALOMY; conditions: 320 g/ha; scored visually after about 3 weeks; 100% = plants have died
Summary of the method: as §3

Viola tricolor (VIOTR) [18] = assay: Pre-emergence herbicidal action against VIOTR
Summary of the method: as §3

[19] = system: Pharbitis purpurea (PHBPU); assay: Post-emergence herbicidal action against PHBPU
Summary of the method: as §1

[20] = system: Pharbitis purpurea (PHBPU); assay: Pre-emergence herbicidal action against PHBPU; conditions: dosage 320 g/ha
Summary of the method: as §3

[21] = system: Triticum aestivum (TRZAS); conditions: crop plant compatibility, 20 g/ha, effect vs untreated controls
Summary of the method: as §2

[22] = 80 g/ha, effect in comparison to untreated controls
[23] = 80 g/ha, visual rating about 3 weeks after treatment vs untreated controls (100% = plants have died, 0% = like control plants)

SMILES: COC(=O)CCOC(=O)COc1nn(-c2ccnc(F)c2)c(-c2ccc(F)nc2)c1Br [III-27]
- Post-emergence action against VIOTR in % (Viola tricolor (VIOTR) [1]): 80%
- Post-emergence action against ZEAMX in % (Zea mays (ZEAMX) [2]; 80 g/ha): 10%
- Post-emergence action against ZEAMX in % (Zea mays (ZEAMX) [2]; 320 g/ha): 10%
- Post-emergence action against ORYSA in % (Oryza sativa (ORYSA) [3]; [22]): 0%
- Post-emergence action against ORYSA in % (Oryza sativa (ORYSA) [3]; 320 g/ha, effect in comparison to untreated controls): 0%
- Post-emergence action against AMARE in % [4, 23]: 80%
- Post-emergence action against AMARE in % ([4]; 320 g/ha, visual rating about 3 weeks after treatment): 80%
- Pre-emergence action against SETVI in % (Setaria viridis (SETVI)): 90%
- Pre-emergence action against TRZAS in % [5]: 20%
- Pre-emergence action against ZEAMX in % (Zea mays (ZEAMX) [6]; 80 g/ha): 10%
- Pre-emergence action against ZEAMX in % (Zea mays (ZEAMX) [6]; 320 g/ha): 20%
- Pre-emergence action against GLXMA in % (Glycine max (GLXMA)): 0%
- Pre-emergence action against ORYSA in % (Oryza sativa (ORYSA) [7]; 80 g/ha): 0%
- Pre-emergence action against ORYSA in % (Oryza sativa (ORYSA) [7]; 320 g/ha): 20%

SMILES: COC(=O)COc1nn(-c2ncccc2C(F)(F)F)c(-c2cncc(F)c2)c1Br [Example I-206]
- Post-emergence action against MATIN in % [8]: 80%
- Pre-emergence action against DIGSA in % [9]: 90%
- Pre-emergence action against MATIN in % [10]: 90%
- Post-emergence action against VIOTR in % (Viola tricolor (VIOTR) [1]): 80%
- Pre-emergence action against AMARE in % [11]: 90%
- Pre-emergence action against ECHCG in % [12]: 80%
- Post-emergence action against VERPE in % [13]: 80%
- Post-emergence action against ECHCG in % [14]: 80%
- Pre-emergence action against POLCO in % ([15]; dosage 80 g/ha): 80%
- Pre-emergence action against POLCO in % ([15]; dosage 320 g/ha): 80%
- Post-emergence action against ALOMY in % [16]: 80%
- Pre-emergence action against ALOMY [17]: 80%
- Pre-emergence action against VIOTR in % (Viola tricolor (VIOTR) [18]; 320 g/ha, Viola tricolor): 100%
- Pre-emergence action against VIOTR in % (Viola tricolor (VIOTR) [18]; dosage 80 g/ha): 90%
- Post-emergence action against PHBPU in % ([19]; dosage 320 g/ha): 90%
- Pre-emergence action against PHBPU in % [20]: 80%
- Pre-emergence action against TRZAS in % [5]: 0%
- Pre-emergence action against GLXMA in % (Glycine max (GLXMA)): 10%

SMILES: COC(=O)CCOC(=O)COc1nn(-c2ccnc(Cl)c2)c(-c2ccc(F)nc2)c1Br [III-19]
- Post-emergence action against TRZAS in % [21]: 20%
- Post-emergence action against ZEAMX in % (crop plant compatibility) (Zea mays (ZEAMX) [2]; 20 g/ha, ZEAMX, effect in comparison to untreated controls): 0%
- Post-emergence action against ORYSA in % (Oryza sativa (ORYSA) [3]; 20 g/ha, effect vs untreated controls): 0%
- Post-emergence action against ORYSA in % (Oryza sativa (ORYSA) [3]; [22]): 0%
- Pre-emergence action against AMARE in % [11]: 80%
- Post-emergence action against AMARE in % [4, 23]: 80%
- Post-emergence action against PHBPU in % ([19]; dosage 80 g/ha): 80%
- Pre-emergence action against TRZAS in % [5]: 20%
- Pre-emergence action against GLXMA in % (Glycine max (GLXMA)): 0%
- Pre-emergence action against ORYSA in % (Oryza sativa (ORYSA) [7]; 80 g/ha): 0%
- Pre-emergence action against ORYSA in % (Oryza sativa (ORYSA) [7]; 320 g/ha): 20%
